Test results as given in US20100330003A1, “ORAL CARE PRODUCT AND METHODS OF USE AND MANUFACTURE THEREOF” (Colgate-Palmolive Company, priority 2008, published 2010).

System: S. sanguis
Assay: ammonia production by S. sanguis at pH 4.0 (Ammonia Assay kit)
Assay type: cell-based
Conditions: 5 millimolar amino acid, 0.1% sucrose, pH 4.0, 37° C., 30 minutes
Protocol: An overnight culture of S. sanguis is grown at 37° C. in trypticase soy broth (Becton Dickinson, Sparks, Md.). The culture is centrifuged at 5,000 rpm for 5 minutes at 1 milliliter at a time into preweighed tubes in order to accumulate approximately 5 milligrams of wet pellet weight. The pellet is then resuspended into 20 millimolar potassium phosphate buffer (JT Baker. Phillipsburg, N.J.), pH 4.0, to simulate a stressed environment for the bacterial cell where ammonia would be produced for survival. The final concentration is 5 milligram per milliliter. To this final concentration, a 5 millimolar final concentration of L-arginine, L-citrulline, or L-ornithine is added along with a 0.1% final concentration of sucrose (VWR, West Chester, Pa.). This mixture is then incubated at 37° C. in a shaking water bath for 30 minutes before ammonia production is determined.
In order to analyze for ammonia, an Ammonia Assay kit is used from Diagnostic Chemicals Limited (Oxford, Conn.). The intended use of this specific kit is for the in vitro quantification of ammonia in plasma, but the procedure is modified in order to determine and quantity the ammonia production in plaque and/or bacteria.

## NC(=O)NCCC[C@H](N)C(=O)O [L-Citrulline, L-citrulline]
Mean of 6 separate trials
  Ammonia (ppm): 0.951 ppm
Trial 1
  Ammonia (ppm): 0.185 ppm
Trial 2
  Ammonia (ppm): 0.346 ppm
Trial 3
  Ammonia (ppm): 0.332 ppm
Trial 4
  Ammonia (ppm): 0.194 ppm
Trial 5
  Ammonia (ppm): 0.226 ppm
Trial 6
  Ammonia (ppm): 0.951 ppm

## N=C(N)NCCC[C@H](N)C(=O)O [L-Arginine, L-arginine]
Mean of 6 separate trials
  Ammonia (ppm): 1.06 ppm
Trial 1
  Ammonia (ppm): 0.509 ppm
Trial 2
  Ammonia (ppm): 0.866 ppm
Trial 3
  Ammonia (ppm): 2.20 ppm
Trial 4
  Ammonia (ppm): 1.62 ppm
Trial 5
  Ammonia (ppm): 0.5 ppm
Trial 6
  Ammonia (ppm): 0.679 ppm

## NCCC[C@H](N)C(=O)O [L-Ornithine, L-ornithine]
Mean of 6 separate trials
  Ammonia (ppm): 0.134 ppm
Trial 1
  Ammonia (ppm): 0.185 ppm
Trial 2
  Ammonia (ppm): 0.260 ppm
Trial 3
  Ammonia (ppm): 0.047 ppm
Trial 4
  Ammonia (ppm): 0.0 ppm
Trial 5
  Ammonia (ppm): 0.181 ppm
Trial 6
  Ammonia (ppm): 0.135 ppm
